# Patent publication US10662193B2, “Carbazole and carboline compounds for use in the diagnosis, treatment, alleviation or prevention of disorders associated with amyloid or amyloid-like proteins” (AC IMMUNE SA, priority 2014, dated 2020)
# How the values were obtained:
# [1] = test system: tau tangles/Aβ plaques on AD brain sections; assay: Assay 1: direct staining of human Alzheimer's disease brain sections (fluorescence); format: binding; conditions: 100 μM; FIG. 1
# In short: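 Compounds (100 μM, 50% aqueous ethanol, 20 min, RT, dark) applied directly to fixed […] frozen amygdala sections of Braak stage V-VI Alzheimer's brains. After washing and 0.1% Sudan Black treatment against autofluorescence, sections were imaged microscopically for fluorescent staining.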
# AD brain-enriched PHF = AD brain-enriched PHF (Homo sapiens, UniProt P10636); assay: Assay 2 (filter trap): radio-binding assay, determination of the dissociation constant (Kd) on PHF; conditions: tritiated ligand 1.25-50 nM, PHF diluted 1/80, 45 min 37° C.
# Protocol: Enrichment of Paired Helical Filaments (PHF's) from Human Alzheimer's Disease Brain
# 50 g of frontal lobe tissue from post-mortem brain of an Alzheimer's disease (AD) patient were obtained from the London Tissue Bank. The patient was a […] and died […]. The brain sample was collected 5 hours post-mortem and characterized for Braak disease stage (Braak, H.; Braak, E. Acta Neuropathol., 1991, 82, 239-259) as stage VI. […]
# AD brain-enriched PHF were diluted 1/80 (with an estimated tau concentration of 62.5 ng/ml and incubated with [^3H]RefA at different concentrations ranging from 50 nM to 1.25 nM. The reaction was performed in a final volume of 70 μL PBS with 2.8% DMSO, for 45 min at 37° C. 30 μL of samples in duplicates were then filtered under vacuum on a GF/B filter plate (PerkinElmer 6005177) to trap the PHF with the bound radio-ligand, and washed three times with PBS. The GF/B filters were then vacuum-dried, 20 μL scintillation liquid (PerkinElmer 1200-436) was added in each well, and the filters were analyzed on a Microbeta Trilux device. […] Specific binding was calculated by subtracting the non-specific signal to the total signal. […] The Kd values were calculated by nonlinear regression, one site specific binding using Prism V5 (GraphPad). […]
# [2] = target: T1, in vitro aggregated Abeta1-42 (Homo sapiens, UniProt P05067); assay: Assay 2 (filter trap): [3H]RefA radio-binding assay, Kd on aggregated Abeta1-42; conditions: Table 23; aggregated Abeta1-42 versus AD brain-enriched PHF
# T1 construct: Abeta1-42 (Bachem, Switzerland) peptide films were re-suspended in 1% DMSO; purchased Bachem, Switzerland
# Protocol: Preparation of Full-Length Tau and Abeta1-42 Aggregates
# Recombinant human full-length Tau441 (flTau) was expressed in bacteria and purified in the laboratory of Professor Hilal Lashuel (EPFL, Switzerland). A solution of 8 μM (400 μg/mL) flTau in PBS, 10 μM DTT and 5 μM heparin (all from Sigma-Aldrich) was gently mixed (cradled) for 3 days at 37° C. Cradled flTau aggregates were used at a final concentration of 20 μg/mL in all binding assays. Abeta1-42 (Bachem, Switzerland) peptide films were re-suspended in 1% DMSO and diluted in PBS to a 33 μM (150 μg/mL) suspension that was sonicated until complete dissolution. Aggregation process was done at 37° C. for 24 hours. […]
# AD brain-enriched PHF were diluted 1/80 (with an estimated tau concentration of 62.5 ng/ml and incubated with [^3H]RefA at different concentrations ranging from 50 nM to 1.25 nM. The reaction was performed in a final volume of 70 μL PBS with 2.8% DMSO, for 45 min at 37° C. 30 μL of samples in duplicates were then filtered under vacuum on a GF/B filter plate (PerkinElmer 6005177) to trap the PHF with the bound radio-ligand, and washed three times with PBS. The GF/B filters were then vacuum-dried, 20 μL scintillation liquid (PerkinElmer 1200-436) was added in each well, and the filters were analyzed on a Microbeta Trilux device. […] Specific binding was calculated by subtracting the non-specific signal to the total signal. […]
# amyloid-beta = assay: Autoradiography on human brain sections with an 18F amyloid binding compound (selectivity); conditions: FIG. 13
# Protocol: 18 micron thick frozen human brain slices and 6 micron thick human FFPE brain slices from the frontal and/or temporal lobes of AD patients were examined via autoradiography. Brain sections were equilibrated for at least 1 h in 1×PBS solution prior to use in the experiment. Each brain section was covered with a solution of the F-18 labeled tracer (200 Bq/μl, 500 μl) in 1×PBS. For blocking experiments with the corresponding 19F-labeled compound, an excess of the blocking compound was mixed with the 18F-compound to yield an end concentration of 10 μM. The brain sections were allowed to incubate with the tracer solution at room temperature for 1 h, drained afterwards and placed in a slide holder. The slides were then washed sequentially with 1×PBS for 1 min; 70% EtOH in 1×PBS for 2 min; 30% EtOH in 1×PBS for 2 min; and 1×PBS for 1 min. The slides were allowed to air-dry before being placed on Fuji imaging plates for overnight exposure. The imaging plates were scanned and the signal was measured using Fuji software to produce an autoradiographic image of the brain section. Representative examples of autoradiography studies with ^18F-178, ^18F-189, ^18F-161, ^18F-95, ^18F-168, ^18F-146, ^18F-156, ^18F-159 are shown in FIGS. 9 to 12. […] Additionally, selectivity was determined by using a tracer binding to amyloid-beta.
# T1 sequence (P05067 672-713 limits assumed): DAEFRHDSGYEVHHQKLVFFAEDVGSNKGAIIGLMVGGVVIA
# Chain of AD brain-enriched PHF (P10636 623-708 limits assumed): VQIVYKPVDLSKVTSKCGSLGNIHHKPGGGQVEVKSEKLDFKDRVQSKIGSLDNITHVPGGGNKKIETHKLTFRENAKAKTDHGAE
Kd (AD brain-enriched PHF) [nM],Fold increase on Abeta1-42 vs PHF [2],competition with ^18F amyloid binding compound (amyloid-beta),SMILES,direct staining of tau tangles on AD brain section [1]
35,5,,CNc1ccc(-c2ccc3ccc(O)cc3n2)cc1 [RefA],direct staining of tau tangles
,,no competition,Cn1c2ccncc2c2ccc(Nc3cccc(OCC[18F])c3)nc21 [^18F-44],
,,no competition,Cn1c2ccncc2c2ccc(Nc3cncc(OCC[18F])c3)nc21 [^18F-59],
